The record followed here is ChEMBL document CHEMBL1142235, “Pharmacokinetics and safety of indinavir in human immunodeficiency virus-infected pregnant women” (Antimicrob Agents Chemother, 2007).

As a reminder, the CL/F is the apparent clearance, not corrected for the fraction that reaches the circulation. Broadly, the Cmax is the peak of the concentration-time curve. By AUC is commonly meant the area under the concentration-time curve, a measure of exposure. Read a high AUC as high exposure. What is called Tmax is the time from dosing to the highest level.

Series [1] can be described thus: Oral clearance in HIV1 infected pregnant woman during postpartum period at 800 mg three times/day. In kind it is ADME, organism-based. To be noted: female, human, in vivo.
The nature of series [2]: Cmax in HIV1 infected pregnant woman during antepartum period at 800 mg three times/day. More on the design: dose 800 mg. The following applies: female, human, in vivo. In kind it is ADME, organism-based.
Series [3] can be described thus: AUC (0-8 hrs) in HIV1 infected pregnant woman during postpartum period at 800 mg three times/day. It is filed as ADME, organism-based. More on the design: dose 800 mg, time < 8 hr. The following applies: female, human, plasma.
For series [4], the species on record is Homo sapiens. Nature of the series: Oral clearance in HIV1 infected pregnant woman during antepartum period at 800 mg three times/day. It is filed as ADME, organism-based. To be noted: in vivo.
Series [5] is described as follows: Tmax in HIV1 infected pregnant woman during postpartum period at 800 mg three times/day. In kind it is ADME, organism-based. To be noted: female, human, in vivo.
The nature of series [6]: Tmax in HIV1 infected pregnant woman during antepartum period at 800 mg three times/day. It is filed as ADME, organism-based. The following applies: female, human, in vivo.
The species entered for series [7] is Homo sapiens. The series is described as follows: AUC (0-8 hrs) in HIV1 infected pregnant woman during antepartum period at 800 mg three times/day. In kind it is ADME, organism-based, Plasma. More on the design: dose 800 mg, time < 8 hr. To be noted: in vivo.
The nature of series [8]: Cmax in HIV1 infected pregnant woman during postpartum period at 800 mg three times/day. In kind it is ADME, organism-based. More on the design: dose 800 mg. The following applies: female, human, in vivo.

In the case of `CC(C)(C)NC(=O)[C@@H]1CN(Cc2cccnc2)CCN1C[C@@H](O)C[C@@H](Cc1ccccc1)C(=O)N[C@H]1c2ccccc2C[C@H]1O.O` [INDINAVIR], the CL/F came to 697 mL/min in series [1] and 3558 mL/min in series [4]. Also, the Cmax in series [2] came to 4370 ng/mL; in series [8], 9270 ng/mL. The compound also had an AUC at 8 h in series [3] of 23800 ng·h/mL. Besides, the Tmax in series [5] is 1.88 h; in series [6], 1.85 h. Besides, the area under the curve (AUC) in series [7] was found to be 459 µg·min/mL.
